Experimental data from publication PMC8536644, “Enigmatic mechanism of the N-vinylpyrrolidone hepatocarcinogenicity in the rat” (Archives of Toxicology, 2021).
Like-named read-outs stand apart in the source and are kept apart here. Marks after values point to notes of the source that are not given here.

How the values were obtained:
mice = test system: mice; parameters: method as in Klimisch et al. [1997b]; conditions: inhalation, ref Klimisch et al. [1997b]; cited from earlier work
CYP1A [1] = assay: EROD assay, lung microsomes of NVP-treated rats; format: in vivo, rat; conditions: after NVP treatment; below the LOD
Description: The alkoxyresorufin dealkylase (AROD) assays were based on the method by Burke et al. ([1994]).
The frozen livers and lungs of the NVP-treated male Wistar rats were thawed and washed with isotonic (0.9%) NaCl solution. The tissues were ice-cooled homogenized (1 g tissue: 3 mL 0.25 M saccharose in 1 mM disodium EDTA, pH 7.4) and centrifuged (9000 g, 15 min, 4 °C). The supernatant fraction was centrifuged (100 000 g, 60 min, 4 °C). The resulting supernatant fraction was used for the palmitoyl-CoA-oxidase assay described further down. The pellet was taken up in 150 mM aqueous KCl solution, recentrifuged (100 000 g, 60 min, 4 °C) and the pellet taken up in 1 mL/g liver or 0.5 mL/g lung resuspension buffer (1 mM GSH, 1 mM disodium EDTA, 4 mM MgCl2, 0.1 M KH2PO4, pH 7.5 and 4% glycerol). […]
For determination of the enzyme activities in triplicates, 85 µL master mix (100 mM TrisHCl pH 7.5, 2 mM 5’AMP, 5 mM G-6-P, 10 U G-6-P-DH, 10 mM Dicumarol, 10 mM MgCl2, either 2 µM EROD or 10 µM PROD or 5 µM BROD) was added to 10 µL microsomal fraction (1 mg protein/mL). […] The activity was determined by measuring the increase of the fluorescence (excitation at 550 nm, emission at 585 nm) due to resorufin formation compared with resorufin standards, which had been prepared by dissolving tenfold concentrated solutions in DMSO, which were then diluted tenfold in 100 mM TrisHCl pH 7.5.

rat lung cells = assay: Trypan Blue viability of the single cell suspension, lung; format: in vivo; conditions: lung, 5 days, individual animals
Description: The organ parts (see above) were washed in mincing buffer (50 mM EDTA in HBSS [without Ca^2+ and Mg^2+] pH 7.5: DMSO 9:1 (v/v), the latter added shortly before use, stored at 4 °C), cut into 1 to 2-mm pieces in ice-cold mincing buffer and transferred to a cell sieve with 70-µm pores. The viability of the cell suspension was evaluated by the Trypan Blue Assay (Strober [2001]).

Wistar rats = assay: Clinical observations and body weight during 5-day inhalation
Description: Eight-week-old male and female Wistar Crl:WI (Han) rats were obtained from Charles River Laboratories, Sulzfeld, Germany and acclimatized for 10 days. They were kept at 20–24 °C at a humidity of 30–70% in groups of six animals in polysulfone cages (Tecniplast) with free access to water and feed (10 mm pellets, Provimi Kliba, Kaiseraugst, Switzerland).
The animals were acclimatized to the whole-body exposure chambers for 2 days using the inhalation stream without the test substance. […] Animals were weighed before the 2-day acclimatation to the exposure chambers and subsequently before and after the exposure to the test substance. Animals were killed in the morning after the last exposure period to perform the examinations described further down.
For the inhalation experiments, two animals per cage (DK III, Becker & CO., Castrop-Rauxel, Germany) were kept in the glass–steel inhalation chambers (volume approximately 200 L) without access to feed and water. For each test dose a constant amount of NVP was pumped by continuous infusion pumps PHD Ultra (Havard Apparatus, Holliston) to an evaporator (Glasverdampfer BASF, Ludwigshafen, Germany; Thermostat Julabo Labortechnik, Seelbach, Germany). The thus generated vapor was combined with air and introduced into the exposure chamber.

rat liver = assay: Liver histology, hematoxylin–eosin staining; format: in vivo
Description: HE staining was performed essentially according to Romeis ([2010]), specifically under the following conditions:
Parts of the frozen (− 80 °C) livers from rats treated with 0, 5, 10 or 20 ppm NVP were thawed in formalin (specifically 4% formaldehyde in sodium phosphate buffer pH 7) and left therein for fixation at least 7 days. Subsequently the livers were cut into approximately 4 mm-thick slices, which were dehydrated in increasingly concentrated ethanol (70–100%), washed in xylene and then transferred into fluid paraffin. The livers were put into kassettes with the parts which were foreseen for cutting toward the bottom, the kassettes filled with paraplast (melting point 58–62 °C) and the material left for hardening. From the embedded livers 3- to 6 µm-thick slices were cut by a rotation microtome, then stretched (in a water bath at 45 °C), transferred to a slide and dried overnight at 50 °C. Subsequently the slices were stained with HE and covered with Pertex. The slices were then microscopically evaluated. Structural changes were classified into severity grades 0, 1, 2 and 3.

[2] = test system: human lymphocyte cultures; parameters: method as in MAK [1994]; conditions: ref MAK [1994]; cited from earlier work
CYP1A [3] = assay: EROD inhibition control in Aroclor 1254-induced rat liver microsomes; format: biochemical; conditions: for EROD enzyme activity: 0 µM control 821.5 ± 54.9
Description: For determination of the enzyme activities in triplicates, 85 µL master mix (100 mM TrisHCl pH 7.5, 2 mM 5’AMP, 5 mM G-6-P, 10 U G-6-P-DH, 10 mM Dicumarol, 10 mM MgCl2, either 2 µM EROD or 10 µM PROD or 5 µM BROD) was added to 10 µL microsomal fraction (1 mg protein/mL). The reaction was started by the addition of 5 µL 2 mM NADPH (dissolved in 100 mM TrisHCl pH 7.5) followed by incubation at 37 °C for 16 min. The activity was determined by measuring the increase of the fluorescence (excitation at 550 nm, emission at 585 nm) due to resorufin formation compared with resorufin standards, which had been prepared by dissolving tenfold concentrated solutions in DMSO, which were then diluted tenfold in 100 mM TrisHCl pH 7.5.
As a method control the described AROD assay was performed with microsomal fractions derived from liver and lung of male Wistar rats which had been treated i.p. for 5 days with aroclor 1254 (500 mg/kg bw). These control assays were performed in presence of 1 μM, 10 μM or 100 μM NVP, respectively, in order to check for potential interactions of NVP with the substrate turnover in the AROD assay.

rat hepatocytes = assay: MTT assay in cultivated rat hepatocytes; format: cell-based; conditions: up to 1000 µM
Sprague–Dawley rats = conditions: cited from earlier work; for Larynx squamous carcinoma, incidence / Liver hepatocellular carcinoma, incidence / Nasal cavity adenocarcinoma, incidence / Nasal cavity adenoma, incidence: 24 months inhalation, 60 animals, ref Klimisch et al. (1997a)
Salmonella strains = conditions: three independent tests in four Salmonella strains; ref MAK [1994]; cited from earlier work
[4] = test system: polychromatic erythrocytes of rat bone marrow; conditions: in vivo; cited from earlier work

## C=CN1CCCC1=O [NVP, N-vinylpyrrolidone]
mice
  Concentration at which erythrocytes, hematocrit and hemoglobin were reduced: 15 ppm
  LOAEC, liver (increased gamma-glutamyl transpeptidase and glutathione): 10 ppm
  LOAEC, nasal mucosa (inflammation, olfactory epithelium atrophy, basal cell hyperplasia): 5 ppm
CYP1A [1]
  EROD activity in lung microsomes: < 1.6 pmol/min/mg protein
Rat lung cells; female, Comet with FPG (Table 11), 20 ppm inhalation
  Individual viability (%): 95%
Rat lung cells; female, no FPG, 20 ppm inhalation
  Individual viability (%): 96%
Rat lung cells; male, Comet with FPG (Table 10), 10 ppm inhalation
  Individual viability (%): 93%
Rat lung cells; male, no FPG, 10 ppm inhalation
  Individual viability (%): 93%
Wistar rats; 5, 10, 20 ppm inhalation, male and female
  Mortality during the 5-day exposure: None of the exposed rats died
Wistar rats; 10 ppm, males, p ≤ 0.05
  Body weight increase: reduced
Wistar rats; day 2 of exposure
  Slightly increased salivation, animals affected: 1 of 48
Wistar rats; days 4 or 5 of exposure
  Red nose effluent, animals affected: 5 of 48
Rat liver; 5 ppm, three males examined
  Males without centrilobular hepatocellular fatty change: two of three
Rat liver; 10 ppm, males
  Animals with low-grade (grade 1) centrilobular hepatocellular fatty change: two of three
Rat liver; 20 ppm, females
  Animals with grade 1 centrilobular hepatocellular fatty change: one of three
  Animals with grade 2 centrilobular hepatocellular fatty change: one
Rat liver; 20 ppm, males
  Animals with high-grade (grade 3) centrilobular hepatocellular fatty change: two of three
[2]
  Chromosome aberration test result: negative
CYP1A [3]; 1 µM NVP
  EROD enzyme activity: 859.9 ± 14.1 pmol/min/mg protein
CYP1A [3]; 10 µM NVP
  EROD enzyme activity: 827.9 ± 13.6 pmol/min/mg protein
CYP1A [3]; 100 µM NVP
  EROD enzyme activity: 858.9 ± 33.9 pmol/min/mg protein
CYP1A [3]; 1, 10 or 100 µM NVP
  Inhibition of EROD activity: does not lead to inhibition
Rat hepatocytes
  Cytotoxicity in MTT assay: no cytotoxicity observed
Sprague–Dawley rats; female, 5 ppm
  Larynx squamous carcinoma, incidence: 0
  Liver hepatocellular carcinoma, incidence: 3
  Nasal cavity adenocarcinoma, incidence: 0
  Nasal cavity adenoma, incidence: 2
Sprague–Dawley rats; female, 10 ppm
  Larynx squamous carcinoma, incidence: 0
  Liver hepatocellular carcinoma, incidence: 6*
  Nasal cavity adenocarcinoma, incidence: 0
  Nasal cavity adenoma, incidence: 8**
Sprague–Dawley rats; female, 20 ppm
  Larynx squamous carcinoma, incidence: 4
  Liver hepatocellular carcinoma, incidence: 26***
  Nasal cavity adenocarcinoma, incidence: 4*
  Nasal cavity adenoma, incidence: 14***
Sprague–Dawley rats; male, 5 ppm
  Larynx squamous carcinoma, incidence: 0
  Liver hepatocellular carcinoma, incidence: 6*
  Nasal cavity adenocarcinoma, incidence: 0
  Nasal cavity adenoma, incidence: 9**
Sprague–Dawley rats; male, 10 ppm
  Larynx squamous carcinoma, incidence: 0
  Liver hepatocellular carcinoma, incidence: 5*
  Nasal cavity adenocarcinoma, incidence: 4*
  Nasal cavity adenoma, incidence: 9***
Sprague–Dawley rats; male, 20 ppm
  Larynx squamous carcinoma, incidence: 4
  Liver hepatocellular carcinoma, incidence: 17***
  Nasal cavity adenocarcinoma, incidence: 6*
  Nasal cavity adenoma, incidence: 11***
Sprague–Dawley rats; rat, inhalation, ref Klimisch et al. [1997a]
  Lowest tested dose at which hepatocellular carcinomas were observed: 5 ppm
Salmonella strains
  Ames Salmonella back mutation test result: negative

## CCOS(C)(=O)=O [EMS, ethyl methanesulfonate, reference compound]
[4]
  Micronuclei in PCE, historical positive controls: 6.1–21.9 ‰
